From patent publication US6930114B2, “Pyrrolo (2.1a)dihydroisoquinolines and their use as phosphodiesterase 10a inhibitors” (Bayer Pharmaceuticals Corporation, priority 2000, dated 2005)
Read-outs that look alike come from different tables or passages of the source.

Assays:
[1] = test system: MDA-MB-231 human breast carcinoma cells; assay: In vitro proliferation inhibition assay (LDH activity, 72 hours); assay type: cell-based; settings: MDA-MB-231 cells, read-out: % inhibition at a concentration of 10 μM
Procedure: MDA-MB-231 human breast carcinoma cells (ATCC # HTB26) were cultured in standard growth medium (DMEM), supplemented with 10% heat-inactivated FBS, 10 mM HEPES, 2 mM glutamine, 100 U/mL penicillin, and 100 μg/mL streptomycin) at 37° C. in 5% CO2 (vol/vol) in a humidified incubator. Cells were plated at a density of 3000 cells per well in 100 μL growth medium in a 96 well culture dish. 24 hours after plating, LDH activity was determined using the Cytotox 96 Non-radioactive Cytotoxicity Kit (Promega, Madison, Wis., U.S.A.) to yield T0h LDH values. Briefly, cells were lysed with the addition of 200 μL of Lysis Buffer (included in the Promega Kit) and lysates were further diluted 1:50 in Lysis Buffer. 50 μL of diluted cell lysate were transferred to a fresh 96 well culture plate. The assay was initiated with the addition of 50 μL of substrate per well. Color development was allowed to proceed for 10-15 minutes. The assay was terminated with the addition of 50 μL of Stop Solution (included in Promega kit). Optical densities were determined spectrophotometrically at 490 nm in a 96 well plate reader (SpectraMax 250, Molecular Devices, Sunnyvale, Calif., U.S.A.).
Test compounds were dissolved in 100% DMSO to prepare 10 mM stocks. Stocks were further diluted 1:250 in growth medium to yield working stocks of 40 μM test compound in 0.4% DMSO. Test compounds were serially diluted in growth medium containing 0.4% DMSO to maintain constant DMSO concentrations for all wells. 50 μL of fresh growth medium and 50 μL of diluted test compound were added to each culture well to give a final volume of 200 μL. The cells with and without individual test compounds were incubated for 72 hours at which time LDH activity was measured to yield T72h values. Optionally, the IC50 values can be determined with a least squares analysis program using compound concentration versus percent inhibition. % Inhibition=[1−(T72h test−T0h)/(T72h ctrl−T0h)]×100 wherein • T72h test=LDH activity at 72 hours in the presence of test compound, • T72h ctrl=LDH activity at 72 hours in the absence of test compound and • T0h=LDH activity at Time Zero

PDE 10a = target: T1, PDE 10a (Homo sapiens, UniProt Q9Y233); assay: In vitro enzyme inhibition assay (3H-cAMP scintillation proximity assay); assay type: biochemical; settings: full-length recombinant PDE 10a, Sf9 cell lysate
T1 construct: Full-length recombinant PDE 10a was expressed in Sf9 insect cells; made in house; host or cells: Sf9 insect cells (Bac-to-Bac baculovirus system); crude lysate supernatant used
T1 sequence (Q9Y233 1-779 isoform Q9Y233-1): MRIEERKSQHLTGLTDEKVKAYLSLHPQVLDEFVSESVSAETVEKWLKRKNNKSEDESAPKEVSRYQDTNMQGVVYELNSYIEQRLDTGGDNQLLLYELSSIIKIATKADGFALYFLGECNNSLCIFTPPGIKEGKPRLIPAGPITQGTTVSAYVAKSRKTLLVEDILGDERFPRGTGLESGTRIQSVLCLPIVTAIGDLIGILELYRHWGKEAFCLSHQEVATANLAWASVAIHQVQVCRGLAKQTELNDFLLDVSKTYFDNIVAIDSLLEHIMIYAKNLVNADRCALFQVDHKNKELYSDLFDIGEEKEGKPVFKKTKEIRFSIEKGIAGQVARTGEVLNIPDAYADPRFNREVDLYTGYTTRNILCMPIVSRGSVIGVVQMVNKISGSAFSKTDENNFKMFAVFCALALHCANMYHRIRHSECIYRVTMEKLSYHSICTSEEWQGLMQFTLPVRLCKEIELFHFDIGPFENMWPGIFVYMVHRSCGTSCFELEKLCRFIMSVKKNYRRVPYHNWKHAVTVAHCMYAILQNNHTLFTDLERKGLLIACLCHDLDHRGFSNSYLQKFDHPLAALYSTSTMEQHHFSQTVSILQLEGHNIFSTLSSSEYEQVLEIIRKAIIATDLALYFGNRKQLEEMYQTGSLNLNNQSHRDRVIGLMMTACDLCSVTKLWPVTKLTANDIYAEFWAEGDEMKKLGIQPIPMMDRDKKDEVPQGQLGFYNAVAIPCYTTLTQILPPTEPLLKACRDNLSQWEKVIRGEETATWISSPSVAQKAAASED
Procedure: Full-length recombinant PDE 10a was expressed in Sf9 insect cells (Invitrogen, Carlsbad, Calif., U.S.A.) using the Bac-to-Bac™ Baculovirus Expression System (Life Technologies, Gaithersburg, Md., U.S.A.). 48 hours post infection, cells were harvested and resuspended in 20 mL (per 1 L culture) Lysis Buffer (50 mM Tris-HCl, pH 7.4, 50 mM NaCl, 1 mM MgCl2, 1.5 mM EDTA, 10% glycerol plus 20 μL Protease Inhibitor Cocktail Set III [CalBiochem, La Jolla, Calif., U.S.A.]). Cells were sonicated at 4° C. for 1 minute and centrifuged at 10,000 RPM for 30 minutes at 4° C. Supernatant was removed and stored at −20° C. for activity assays.
The test compounds were serially diluted in DMSO using two-fold dilutions to stock concentrations ranging typically from 200 μM to 1.6 μM (final concentrations in the assay range from 4 μM to 0.032 μM). 96-well assay isoplates (Wallac Inc., Atlanta, Ga., U.S.A.) were loaded with 50 μL dilution buffer per well (dilution buffer: 50 mM Tris/HCl pH 7.5, 8.3 mM MgCl2, 1.7 mM EDTA, 0.2% BSA). 2 μL of the serially diluted individual test compounds were added to individual wells,m followed by 25 μL of a 1:25,000 dilution of crude recombinant PDE 10a-containing Sf9 cell lysate (diluted in dilution buffer described above). The enzymatic assay was initiated by addition of 25 μL (0.025 μCi) ^3H cyclic AMP tracer [5′,8-^3H] adenosine 3′,5′-cyclic phosphate (Amersham Pharmacia Biotech., Piscataway, N.J., U.S.A.) that was diluted 1:1000 in assay buffer (assay buffer: 50 mM Tris/HCl pH 7.5, 8.3 mM MgCl2, 1.7 mM EDTA). Reactions were incubated at room temperature for 60 minutes and terminated by addition of 25 μL of 18 mg/mL Yttrium Scintillation Proximity Beads (Amersham Pharmacia Biotech., Piscataway, N.J., U.S.A.). Plates were sealed and incubated at room temperature for 60 minutes. Plates were read for 30 seconds/well using a Microbeta counter (Wallac Inc., Atlanta, Ga., U.S.A.). The IC50 values were determined by plotting compound concentration versus percent inhibition.

SMILES	inhibition at 10 µM ([1]; Examples of part a (Table 2a))	IC50 (PDE 10a; Examples of part a (Table 1a))	inhibition at 10 µM ([1]; Examples of part b (Table 2b))	IC50 (PDE 10a; Examples of part b (Table 1b))
CCOC(=O)c1c(-c2cc(C)c(O)c(C)c2)c(C)n2c1-c1cc(OC)c(OC)cc1CC2 [(part a) 1]	93%	30 nM	–	–
CCOC(=O)c1c(-c2cc(O)cc(O)c2)c(C)n2c1-c1cc(OC)c(OC)cc1CC2 [(part b) 1]	–	–	89%	110 nM
CCOC(=O)c1c(-c2cccc(N)c2)c(C)n2c1-c1cc(OC)c(OC)cc1CC2 [(part a) 28]	93%	110 nM	–	–
CCOC(=O)c1c(-c2cccc(N(C)C)c2)c(C)n2c1-c1cc(OC)c(OC)cc1CC2 [(part a) 10]	93%	42 nM	–	–
